Source: patent US20130295669A1, “METHOD FOR CONTROLLING BINDING OF CELLS TO A SUBSTRATE” (LONZA COLOGNE GMBH, priority 2010, published 2013)

Columns and labels:
[1] = test system: mesenchymal stem cells from bone marrow (BM-MSCs); assay: Cell aggregation of BM-MSCs in suspension (deep-well) culture; format: cell-based; settings: for cell clustering: suspension deep-well
Description: (§1) Cell aggregation (A), cell survival (B) and apoptosis (C) were assayed in presence or absence of different Blebbistatin concentrations up to seven days. ROCK inhibitor (Y-27532) was used as a positive control. Cells were added to deep-wells not supporting adherent growth. Different concentrations of Blebbistatin and Y-27632 were tested in suspension (deep-well, 130 RPM) and adhesion (six-well) culture on BM-MSCs (media containing 10% FBS).
(§2) B: Live cells were quantified by FACS using dye-exclusion assay (propidium iodide). […] The survival-enhancing effect of Blebbistatin appeared concentration dependent peaking at 10 μM and decreasing at both higher and lower concentrations of Blebbistatin. C: Apoptotic cells were quantified by FACS using Annexin V-assay (propidium iodide).

[2] = test system: mesenchymal stem cells from bone marrow (BM-MSCs); format: cell-based
Description: as §1, with “FBS). […] B: Live cells were quantified by FACS using dye-exclusion assay (propidium iodide). […] The survival-enhancing effect of Blebbistatin appeared concentration dependent peaking at 10 μM and decreasing at both higher and lower concentrations of Blebbistatin. C: Apoptotic cells were quantified by FACS using Annexin V-assay (propidium iodide).” for “FBS).”

[3] = test system: mesenchymal stem cells from bone marrow (BM-MSCs); assay: Apoptosis by Annexin V staining and FACS; format: cell-based
Description: as §1, §2

[4] = test system: BM-MSC cultures; assay: Cell cycle profiles (G1/G0 and G2) by propidium iodide FACS with continuous BrdU incorporation; format: cell-based; settings: suspension/shaking culture in deep-wells, up to 3 days
Source text: (§3) BM-MSC cultures were allowed to incorporate BrdU continuously and were sampled at different points of time (up to 3 days). Most cells are in G1/G0 phase (very dense culture), but there are also some G2-cells present. Absence of >4N cells (no multinucleated cells detected).
as §3, with “also” for “also some”, “detected). During continuous treatment in adherent T-flasks culture (G2/M) slight slowing down of the cell cycle was observed.” for “detected).”

[5] = test system: BM-MSCs; assay: Attachment of BM-MSCs to hydrophobic side of Lumox-biofoil bag; format: cell-based; settings: 10 μM, 48 h treatment
Description: Colony and attached cells observed after 48 h treatment with <0.1% DMSO are shown. No significant attachment of cells could be observed.
Colony and attached cells observed after 48 h treatment with 10 μM Blebbistatin are shown. […] Thus, if compared to FIG. 6 (control), treatment with Blebbistatin results in an increased affinity of BM-MSCs to this surface.

[6] = test system: mesenchymal stem cells from bone marrow (BM-MSC); assay: Dislocation of BM-MSCs with Trypsin/EDTA after pretreatment, and reseeding; format: cell-based; settings: for effect against cell dislocation and clumping: 3 min Trypsin/EDTA; for cell proliferation (yield and viability) after reseeding: pretreatment before dislocation, 7 days in drug-free medium, 5000 cells/cm^2
Description: Subconfluent BM-MSCs were subjected to 4 h pretreatment (10 μM Blebbistatin or 10 μM Y-27632 vs control) and subsequent incubation for 3 min. with Trypsin/EDTA at 37° C. Cell counts were determined after dislocation of the cells from the surface of tissue culture flasks without specific coating (A). […] Dislocated cells are devoid of aggregates in drug-treated condition. […] Cells were reseeded (all conditions at same density: 5000 cells/cm^2) and cultured for additional 7 days in drug-free medium. After 7 days cell counts (B) and viability (C) were determined. […] An increase in cell proliferation (yield and viability) by Blebbistatin and less for Y-27632 treatment before dislocation in the subsequent drug-free passage (day 7) was also observed.

[7] = test system: mesenchymal stem cells from bone marrow (BM-MSC); assay: BM-MSCs seeded on microcarriers for suspension culture; format: cell-based
Description: BM-MSCs were seeded on microcarriers for suspension culture in presence or absence of 10 μM Blebbistatin and allowed to proliferate for 6 days. After 24 h incubation without agitation the culture was sampled to determine cell count, Glucose consumption and cell seeding. After 5 additional days of incubation with agitation Glucose consumption (A), Lactate production (B), cell count (C) and cell seeding on carriers (DAPI-stain of cells on carrier, FIG. 11) were determined again. […] Accordingly, Blebbistatin has a protective effect on the cells resulting in enhanced proliferation after 6 days growth on microcarriers.

[8] = test system: human Embryonic Stem Cells (hESCs); assay: Post-split attachment of hESCs on Matrigel-coated dishes in X-VIVO medium; format: cell-based
Description: The cells were cultured in defined X-VIVO medium containing no serum or animal-derived components on culture dishes coated with Matrigel®. A: No treatment with inhibitor (control), B: Transient treatment with 10 μM Blebbistatin (left micrograph: 4-fold magnification, right micrograph: 10-fold magnification), C: Culture 1 day after withdrawal of Blebbistatin. The post-split attachment of hESCs in X-VIVO has been low (A: 5-15%). When the culture was split (EDTA passage), the medium was supplemented with 10 μM of Blebbistatin. This increased the attachment of hESCs dramatically (B: 80-95%) compared to the post-split attachment of Blebbistatin-free hESC culture in X-VIVO. In fact, even the individualized hESCs attached very well. The media of the culture was replaced after 24 h with Blebbistatin-free X-VIVO to see how the cells stay attached and proliferate without Blebbistatin.

[9] = test system: mesenchymal stem cells from bone marrow (BM-MSC); assay: BM-MSC attachment and proliferation on repellent Teflon foil; format: cell-based; settings: 10 μM
Description: MSCs were cultured with 10 μM Bb for 4 days on repellent Teflon® foil and the cells attached to the foil were counted on day 4. Bars represent the number of cells per well. Control cultures: BM-MSCs in DMSO or PBS without inhibitor. […] Thus, BM-MSCs attach and proliferate on Teflon® foil.
MSCs were cultured with 10 μM Bb on repellent Teflon® foil until confluency was reached, the cells attached to the foil were counted on day 6 after cell seeding. Bars represent the number of cells per well. Control cultures: BM-MSCs in DMSO or PBS without inhibitor.

[10] = test system: stem cells from cord blood (CB-USSC); assay: CB-USSC attachment and proliferation on repellent Teflon foil; format: cell-based; settings: 10 μM
Description: USSCs were cultured with 10 μM Bb for 4 days on repellent Teflon® foil and the cells attached to the foil were counted on day 4. Bars represent the number of cells per well. Control cultures: CB-USSCs in DMSO or PBS without inhibitor. […] Thus, CB-USSCs attach and proliferate on Teflon® foil.
USSCs were cultured with 10 μM Bb on repellent Teflon® foil until confluency was reached, the cells attached to the foil were counted on day 6 after cell seeding. Bars represent the number of cells per well. Control cultures: CB-USSCs in DMSO or PBS without inhibitor.
USSCs were cultured with 10 μM Bb on repellent Teflon® foil dish and counted on day 4 after cell seeding. Bars represent the number of cells per well. Control cultures: CB-USSCs in DMSO or PBS without inhibitor. […] USSC attachment and proliferation on Teflon® foil in serum-reduced (EGM2) media is enhanced by myosin inhibition.
USSCs were cultured with 10 μM Bb on repellent Teflon® foil dish and counted on day 4 after cell seeding. Bars represent the number of cells per well. Control cultures: CB-USSCs in DMSO or PBS without inhibitor.

[11] = test system: stem cells from cord blood (CB-USSCs); assay: CB-USSCs on PTFE vessel material; format: cell-based; settings: 10 μM, 3 days on PTFE-vessel material
Description: USSCs were cultured with 10 μM Bb for 3 days on repellent PTFE-vessel material compared to control cultures.

[12] = test system: human embryonal stem cells (hEST); assay: Cryopreservation recovery of human embryonal stem cells; format: cell-based
Source text: Usually only cell clusters can be cryopreserved, but not single ES cells.
Moreover, adding Blebbistatin before freezing is beneficial for cryopreserving single hESCs.

[13] = test system: human pluripotent stem cells; settings: clonal density and suspension conditions; cited from earlier work
[14] = deep well culture, up to seven days, overall statement

For `Cc1ccc2c(c1)C(=O)C1(O)CCN(c3ccccc3)C1=N2` (stereo not drawn) [Blebbistatin], the cell clustering ([1]; 10 μM) was “prevents cell clustering”, the cell aggregation [1, 14] was “prevents or at least greatly reduces cell aggregation” and the cell clustering ([1]; less than 10 μM) was “formed a single aggregate”. The “optimum concentration for eliminating cell death” value [2] was 10 µM, the cell survival [2, 14] was “enables cell survival” and the “cell death rates (propidium iodide, FACS)” value ([2]; especially at 10-50 μM, adhesive/static or suspension/shaking) was “significantly eliminates cell death”. The “concentration at which survival-enhancing effect peaks” value ([2]; suspension, decreasing at higher and lower concentrations) was 10 µM, the “concentration of greatest anti-apoptotic effect” value [3] was 10 µM and the “apoptotic cells (Annexin V-assay)” value ([3]; 10 μM, versus DMSO, PBS controls) was “protected against apoptosis”. The anti-apoptotic effect ([3]; below 5 μM) was “merely a limited effect”, the apoptosis [3, 14] was “decreases apoptosis” and the “cell death in suspension culture (AnnexinV staining)” value ([3]; suspension/shaking conditions) was “eliminates cell death in suspension culture”. For the same compound, the “anti-apoptotic effect relative to Y-27632” value ([3]; various inhibitor concentrations) was “comparable or stronger than that of Y-27632”, the “effect on cell cycle” value [4] was “no significant effect” and the “cells attached to hydrophobic surface” value [5] was “A significant number of cells is attached”. For the same compound, the “effect against cell dislocation and clumping” value ([6]; 10 μM, 4 h pretreatment) was “protective effects against cell dislocation and clumping”, the “cell counts dislocated from tissue culture flasks” value ([6]; 10 μM, 4 h pretreatment, 3 min Trypsin/EDTA at 37° C.) was “Fewer cells are dislocated” and the “cell proliferation (yield and viability) after reseeding” value [6] was “enhanced proliferation and viability”. For the same compound, the “cell seeding on microcarriers” value ([7]; 10 μM, after 24 h without agitation) was “markedly increased”, the Glucose consumption ([7]; 10 μM, after 6 days) was “no effect” and the Lactate production ([7]; 10 μM, after 6 days) was “no effect”. For the same compound, the cell number ([7]; 10 μM, after 6 days on microcarriers) was “significantly increased”, the “cells adhering to microcarriers (DAPI-stain micrographs)” value ([7]; after 6 days of incubation) was “much more cells adhere to the microcarriers” and the “post-split attachment of hESCs” value ([8]; 10 μM, EDTA passage, X-VIVO medium, Matrigel) was 80-95%. The “attachment and proliferation after withdrawal of Blebbistatin” value ([8]; medium replaced after 24 h, 1 day after withdrawal) was “no significant changes could be observed”, the “cell yield (cells attached to foil per well)” value ([9]; day 4) was “significant increase in cell yield” and the “confluency on Teflon foil” value ([9]; day 6) was “do not form a completely confluent layer”. The “cell yield (cells attached to foil per well)” value ([9]; day 6 after cell seeding) was “No differences in cell yield”, the “cell yield (cells attached to foil per well)” value ([10]; day 4) was “highly significant increase in cell yield” and the “proliferation (cells per well)” value ([10]; day 4, low serum EGM2+Dex-media (3% serum)) was “significantly enhanced proliferation”. For the same compound, the “cell yield (cells per well)” value ([10]; day 4, serum-free MSCGM-CD medium) was “No apparent increase in cell yield”, the “confluency on Teflon foil” value ([10]; day 6) was “form confluent layers” and the “cell yield (cells attached to foil per well)” value ([10]; day 6 after cell seeding) was “significant increase in cell yield”. For the same compound, the “cell spreading and aggregate formation” value [11] was “Markedly enhanced cell spreading but no aggregate formation”, the “cryopreservation recovery of single hESCs” value [12] was “increases the cryopreservation recovery of single hESCs to the comparable level of the recovery of hESC clusters” and the “effect of adding before freezing on cryopreserving single hESCs” value ([12]; added before freezing) was “beneficial”. For the same compound, the “survival rate of human pluripotent stem cells” value [13] was “increases the survival rate”.
With `C[C@@H](N)[C@H]1CC[C@H](C(=O)Nc2ccncc2)CC1` [Y-27632] the “effect against cell dislocation and clumping” value ([6]; 10 μM, 4 h pretreatment) was “protective effects against cell dislocation and clumping” and the “cell proliferation (yield and viability) after reseeding” value [6] was “less”.
